Experimental data: patent US20160270397A1, “Herbicidal Composition Comprising ACC Inhibitors” (BASF SE, priority 2013, published 2016)
Like-named read-outs stand apart in the source and are kept apart here.

Experiments:
[1] = tested on: SETVI; test: Greenhouse post-emergence treatment, herbicidal activity against SETVI; type: in vivo, Setaria viridis L.
Method: (§1) The culture containers used were plastic pots containing loamy sand with approximately 2-3.0% of organic matter. The seeds of the test plants were sown separately for each species.
(§2) For the post-emergence treatment, the test plants were grown to a plant height of from 3 to 15 cm, depending on the plant habit, and only then treated with the active compounds which had been suspended or emulsified in water. To this end, the test plants were either sown directly, and grown in the same containers, or they were first grown separately as seedlings and transplanted into the test containers a few days prior to treatment.
(§3) Depending on the species, the plants were kept at 10-25° C. and 20-35° C., respectively. The test period extended over 1 to 4 weeks. During this time, the plants were tended and their response to the individual treatments was evaluated.
(§4) Evaluation was carried out using a scale from 0 to 100. 100 means no emergence of the plants, or complete destruction of at least the above-ground parts, and 0 means no damage or normal course of growth.

[2] = tested on: COMBE; test: Greenhouse post-emergence treatment, herbicidal activity against COMBE; type: in vivo, Commelina benghalensis
Method: as §1, §2, §3, §4

[3] = tested on: LEFFA; test: Greenhouse post-emergence treatment, herbicidal activity against LEFFA; type: in vivo, Leptochloa fusca subsp. Fascicularis
Method: as §1, §2, §3, §4

[4] = tested on: BRADE; test: Greenhouse post-emergence treatment, herbicidal activity against BRADE; type: in vivo, Brachiaria deflexa
Method: as §1, §2, §3, §4

[5] = tested on: AMARE; test: Greenhouse post-emergence treatment, herbicidal activity against AMARE; type: in vivo, Amaranthus retroflexus L.
Method: as §1, §2, §3, §4

[6] = tested on: PHACA; test: Greenhouse post-emergence treatment, herbicidal activity against PHACA; type: in vivo, Phalaris canariensis L.
Method: as §1, §2, §3, §4

[7] = tested on: SEBEX; test: Greenhouse post-emergence treatment, herbicidal activity against SEBEX; type: in vivo, Sesbania exaltata
Method: as §1, §2, §3, §4

[8] = tested on: IPOHE; test: Greenhouse post-emergence treatment, herbicidal activity against IPOHE; type: in vivo, Ipomoea hederacea
Method: as §1, §2, §3, §4

## CC1(C)CON(Cc2ccccc2Cl)C1=O [b5.1, clomazone]
[1]; b5.1 75 g/ha a.i.
  herbicidal activity against SETVI, found: 15%
[2]; b5.1 75 g/ha a.i.
  herbicidal activity against COMBE, found: 70%

## CC(C)N1C(=O)c2ccccc2NS1(=O)=O [b3.1, bentazone]
[2]; b3.1 250 g/ha a.i.
  herbicidal activity against COMBE, found: 95%
[3]; Diplachne fusca, b3.1 250 g/ha a.i., read-out: herbicidal activity against LEFFA, found
  pest or weed control at 250 g/ha: 10%

## COc1cc(OC)nc(NC(=O)NS(=O)(=O)Cc2ccccc2C(=O)O)n1 [b2.2, bensulfuron]
[4]; b2.2 31 g/ha a.i.
  herbicidal activity against BRADE, found: 0%
[5]; b2.2 31 g/ha a.i.
  herbicidal activity against AMARE, found: 80%

## O=C(O)COc1nc(Cl)c(Cl)cc1Cl [b7.6, triclopyr]
[6]; b7.6 50 g/ha a.i.
  herbicidal activity against PHACA, found: 0%
[3]; Diplachne fusca, b7.6 50 g/ha a.i., read-out: herbicidal activity against LEFFA, found
  pest or weed control at 50 g/ha: 20%
[7]; b7.6 50 g/ha a.i.
  herbicidal activity against SEBEX, found: 50%

## COc1c(Cl)ccc(Cl)c1C(=O)O [b7.2, dicamba]
[3]; Diplachne fusca, b7.2 250 g/ha a.i., read-out: herbicidal activity against LEFFA, found
  pest or weed control at 250 g/ha: 25%

## COc1cc(OC)nc(NC(=O)NS(=O)(=O)c2c(-c3nnn(C)n3)cnn2C)n1 [b2.1, azimsulfuron]
[2]; b2.1 5 g/ha a.i.
  herbicidal activity against COMBE, found: 0%
[8]; b2.1 10 g/ha a.i.
  herbicidal activity against IPOHE, found: 90%

## CCCC(=NOCC)C1=C(O)CC(C2CCCSC2)CC1=O (stereo not shown) [a1.19, cycloxydim]
[4]; a1.19 10 g/ha a.i.
  herbicidal activity against BRADE, found: 65%
[5]; Example 2, a1.19 10 g/ha a.i.
  herbicidal activity against AMARE, found: 0%
[5]; Example 6, a1.19 10 g/ha a.i.
  herbicidal activity against AMARE, found: 0%
[2]; a1.19 10 g/ha a.i.
  herbicidal activity against COMBE, found: 0%
[3]; Diplachne fusca, a1.19 5 g/ha a.i., read-out: herbicidal activity against LEFFA, found
  pest or weed control at 5 g/ha: 50%
[8]; Example 1, a1.19 10 g/ha a.i.
  herbicidal activity against IPOHE, found: 10%
[8]; Example 6, a1.19 10 g/ha a.i.
  herbicidal activity against IPOHE, found: 10%
[8]; a1.19 5 g/ha a.i.
  herbicidal activity against IPOHE, found: 0%

## O=C(O)c1c(Cl)ccc2cc(Cl)cnc12 [b7.5, quinclorac]
[1]; b7.5 90 g/ha a.i.
  herbicidal activity against SETVI, found: 65%
[5]; b7.5 180 g/ha a.i.
  herbicidal activity against AMARE, found: 50%
[2]; b7.5 7.5 g/ha a.i.
  herbicidal activity against COMBE, found: 0%
[3]; Diplachne fusca, Example 12, b7.5 75 g/ha a.i., read-out: herbicidal activity against LEFFA, found
  pest or weed control at 75 g/ha: 65%
[3]; Example 13, b7.5 75 g/ha a.i.
  herbicidal activity against LEFFA, found: 65%

## COc1cc(OC)nc(Oc2cccc(Oc3nc(OC)cc(OC)n3)c2C(=O)O)n1 [b2.13, bispyribac]
[5]; b2.13 5 g/ha a.i.
  herbicidal activity against AMARE, found: 90%
[3]; Diplachne fusca, Example 10, b2.13 5 g/ha a.i., read-out: herbicidal activity against LEFFA, found
  pest or weed control at 5 g/ha: 65%
[3]; Example 11, b2.13 5 g/ha a.i.
  herbicidal activity against LEFFA, found: 65%
[8]; Example 5, b2.13 5 g/ha a.i.
  herbicidal activity against IPOHE, found: 75%
[8]; Example 6, b2.13 5 g/ha a.i.
  herbicidal activity against IPOHE, found: 75%

## C[C@@H](Oc1ccc(Oc2cnc3cc(Cl)ccc3n2)cc1)C(=O)O [a1.14, quizalofop-P]
[1]; a1.14 7.5 g/ha a.i.
  herbicidal activity against SETVI, found: 75%
[1]; a1.14 15 g/ha a.i.
  herbicidal activity against SETVI, found: 85%
[5]; a1.14 7.5 g/ha a.i.
  herbicidal activity against AMARE, found: 20%
[2]; a1.14 10 g/ha a.i.
  herbicidal activity against COMBE, found: 0%
[2]; a1.14 15 g/ha a.i.
  herbicidal activity against COMBE, found: 0%
[6]; a1.14 15 g/ha a.i.
  herbicidal activity against PHACA, found: 65%
[3]; Example 10, a1.14 10 g/ha a.i.
  herbicidal activity against LEFFA, found: 40%
[3]; Example 11, a1.14 10 g/ha a.i.
  herbicidal activity against LEFFA, found: 40%
[3]; Example 12, a1.14 10 g/ha a.i.
  herbicidal activity against LEFFA, found: 40%
[3]; Example 13, a1.14 10 g/ha a.i.
  herbicidal activity against LEFFA, found: 40%
[3]; a1.14 15 g/ha a.i.
  herbicidal activity against LEFFA, found: 65%
[8]; Example 3, a1.14 12 g/ha a.i.
  herbicidal activity against IPOHE, found: 0%
[8]; Example 5, a1.14 12 g/ha a.i.
  herbicidal activity against IPOHE, found: 5%
[7]; a1.14 15 g/ha a.i.
  herbicidal activity against SEBEX, found: 0%

## COc1cnc(OC)n2nc(NS(=O)(=O)c3c(OCC(F)F)cccc3C(F)(F)F)nc12 [b2.12, penoxsulam]
[3]; Diplachne fusca, b2.12 8 g/ha a.i., read-out: herbicidal activity against LEFFA, found
  pest or weed control at 8 g/ha: 0%
[8]; Example 3, b2.12 8 g/ha a.i.
  herbicidal activity against IPOHE, found: 80%
[8]; Example 4, b2.12 8 g/ha a.i.
  herbicidal activity against IPOHE, found: 80%

## CC(C)N(C)S(=O)(=O)NC(=O)c1cc(-n2c(=O)cc(C(F)(F)F)n(C)c2=O)c(F)cc1Cl [b4.3, saflufenacil]
[3]; Diplachne fusca, Example 11, b4.3 2.5 g/ha a.i., read-out: herbicidal activity against LEFFA, found
  pest or weed control at 2.5 g/ha: 65%
[3]; Example 12, b4.3 2.5 g/ha a.i.
  herbicidal activity against LEFFA, found: 65%
